Biological target: T1, CCR4 (Homo sapiens, UniProt P51679)
T1 construct: expressed in transfected cells; host or cells: HEK293
T1 sequence (P51679 1-360): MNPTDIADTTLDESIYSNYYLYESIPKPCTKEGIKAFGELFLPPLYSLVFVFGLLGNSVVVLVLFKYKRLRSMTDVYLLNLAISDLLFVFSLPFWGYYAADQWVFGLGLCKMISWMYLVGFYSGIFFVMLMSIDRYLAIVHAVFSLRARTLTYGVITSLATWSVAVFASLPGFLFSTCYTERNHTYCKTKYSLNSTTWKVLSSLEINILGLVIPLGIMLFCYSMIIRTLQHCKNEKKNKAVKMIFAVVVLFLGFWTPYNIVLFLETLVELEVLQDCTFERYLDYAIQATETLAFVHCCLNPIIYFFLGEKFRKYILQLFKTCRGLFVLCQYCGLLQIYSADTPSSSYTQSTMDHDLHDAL
Assay: Calcium flow detected by FLIPR
Type: cell-based
Settings: CCR4/HEK293 cells, agonist CCL17, Fluo-4 calcium signal
Method: CCR4/HEK293 cells were added to a 384-well cell culture plate (Greiner #781946) at a rate of 20 μL/well (20,000 cells/well) and incubated overnight in a 37° C., 5% CO2 incubator (Incubator, Thermo). On the second day, the 384-well cell culture plate was taken out of the incubator and the culture medium was removed; Then, 20 μL of detection buffer and 20 μL of 2X Fluo-4 Direct™ (Invitrogen, Cat #F10471) were added. Then, compounds were added at 10 μL/well (compounds were subjected to 4-fold serial dilution, and the highest detection concentration was 10 μM), and the cells were incubated in a 37° C., 5% CO2 incubator for 50 min, and then incubated at room temperature for 10 min. The 384-well culture plate was placed in FLIPR ([…]), 10 μL of 6X agonist CCL17 was added by using an automatic loader, and the fluorescence signal was read immediately. The mean and standard error (Mean±SEM) were statistically analyzed using Graphpad Prism software, and the IC50 value was calculated.
The experimental results are shown in Table 3, where A represents IC50<100 nm; B represents 100 nM≤IC50<500 nM, and C represents 500 nM≤IC50.

Q: `C#Cc1cc(Cl)ccc1C(C)Nc1nc(N2CC(C3CCCN(C4CC(C)(C(=O)O)C4)C3)C2)nc(C)c1Cl` (single isomer, unassigned) [Compound 7 isomer 2] was tested. Which IC50 did it give?
A: Its IC50 is 100 to 500 nM.

Q: For `Cc1nc(N2CC(C3CCCC(N4CC(C)(C(=O)O)C4)C3)C2)nc(NC(C)c2ccc(Cl)cc2Cl)c1Cl` (single isomer, unassigned) [Compound 8 isomer 1], which IC50 is on record?
A: The IC50 was 100 to 500 nM.

Q: With `Cc1nc(N2CC(C3CCCN(C4CC(C)(C(=O)O)C4)C3)C2)nc(NC(C)c2cc(Cl)sc2Cl)c1Cl` (single isomer, unassigned) [Compound 10 isomer 1] as the compound, how does the IC50 read?
A: The IC50 was 100 to 500 nM.

Q: How did the IC50 turn out when `C#Cc1ccc(C(C)Nc2nc(N3CC([C@H]4CCCN([C@H]5C[C@](C)(C(=O)O)C5)C4)C3)nc(C)c2Cl)c(Cl)c1` (single isomer, unassigned) [Compound 11 isomer 1] was run?
A: The IC50 was less than 100 nM.

Q: For `Cc1nc(N2CC(N3CCCC(N4CC(C)(C(=O)O)C4)C3)C2)nc(NC(C)c2ccc(Cl)cc2Cl)c1Cl` (single isomer, unassigned) [Compound 16 isomer 1], which IC50 is on record?
A: Its IC50 is 100 to 500 nM.

Q: With `Cc1nc(N2CC(N3CCCC(N4CC(C)(C(=O)O)C4)C3)C2)nc(NC(C)c2ccc(Cl)cc2Cl)c1Cl` (single isomer, unassigned) [Compound 16 isomer 2] as the compound, how does the IC50 read?
A: Its IC50 is less than 100 nM.

Q: Which IC50 does the source give for `Cc1nc(C#CC2CCCN(C3CC(C)(C(=O)O)C3)C2)nc(NC(C)c2ccc(Cl)cc2Cl)c1Cl` (single isomer, unassigned) [Compound 18 isomer 2] here?
A: The IC50 was less than 100 nM.

Q: With `Cc1nc(C2CN(C3CCCN(C4CC(C)(C(=O)O)C4)C3)C2)nc(NC(C)c2ccc(Cl)cc2Cl)c1Cl` (single isomer, unassigned) [Compound 20 isomer 3] as the compound, how does the IC50 read?
A: The IC50 was less than 100 nM.

Q: For `C#Cc1ccc(C(C)Nc2nc(N3CC(C4CN(C5CC(C)(C(=O)O)C5)CCO4)C3)nc(C)c2Cl)c(Cl)c1` (single isomer, unassigned) [Compound 28 isomer 1], which IC50 is on record?
A: Its IC50 is less than 100 nM.

Q: For `C[C@@H](Nc1cc(N2CC(C3CN(C4CC(C)(C(=O)O)C4)CCO3)C2)ncn1)c1ccc(Cl)cc1Cl` (single isomer, unassigned) [Compound 29 isomer 1], which IC50 is on record?
A: Its IC50 is 100 to 500 nM.

Q: `C#Cc1cc(Cl)ccc1C(C)Nc1nc(N2CC(C3CN(C4CC(C)(C(=O)O)C4)CCO3)C2)nc(C)c1Cl` (single isomer, unassigned) [Compound 30 isomer 1] was tested. Which IC50 did it give?
A: Its IC50 is less than 100 nM.

Q: `CC(Nc1nc(N2CC(C3CN(C4CC(C)(C(=O)O)C4)CCO3)C2)ncc1Br)c1ccc(Cl)cc1Cl` (single isomer, unassigned) [Compound 37 isomer 1] was tested. Which IC50 did it give?
A: Its IC50 is less than 100 nM.

Q: How did the IC50 turn out when `CC(Nc1nc(N2CC(C3CN(C4CC(C)(C(=O)O)C4)CCO3)C2)ncc1Br)c1ccc(Cl)cc1Cl` (single isomer, unassigned) [Compound 37 isomer 2] was run?
A: Its IC50 is 100 to 500 nM.

Q: For `CC(Nc1nc(N2CC(C3CN(C4CC(C)(C(=O)O)C4)CCO3)C2)ncc1Cl)c1ccc(Cl)cc1Cl` (single isomer, unassigned) [Compound 42 isomer 1], which IC50 is on record?
A: The IC50 was less than 100 nM.

Q: `C[C@@H](Nc1nc(N2CC(C3CN(C4CC(C)(C(=O)O)C4)CCO3)C2)nc2ccsc12)c1ccc(Cl)cc1Cl` (single isomer, unassigned) [Compound 54 isomer 1] was tested. Which IC50 did it give?
A: Its IC50 is 100 to 500 nM.

Q: Which IC50 does the source give for `CC(Nc1nc(N2CC(C3CN(C4CC(C)(C(=O)O)C4)CCO3)C2)c2ccccc2n1)c1ccc(Cl)cc1Cl` (single isomer, unassigned) [Compound 60 isomer 1] here?
A: The IC50 was 100 to 500 nM.

Q: How did the IC50 turn out when `CC(Nc1nc(N2CC(F)(C3CN(C4CC(C)(C(=O)O)C4)CCO3)C2)nc(C(F)(F)F)c1Cl)c1ccc(Cl)cc1Cl` (single isomer, unassigned) [Compound 65 isomer 3] was run?
A: Its IC50 is 100 to 500 nM.

Q: How did the IC50 turn out when `CC(Nc1nc(N2CC(F)(C3CN(C4CC(C)(C(=O)O)C4)CCO3)C2)nc(C(F)F)c1Cl)c1ccc(Cl)cc1Cl` (single isomer, unassigned) [Compound 66 isomer 3] was run?
A: Its IC50 is 100 to 500 nM.

Q: Which IC50 does the source give for `C[C@@H](Nc1nc(N2CC(C3CN(C4CC(C)(C(=O)O)C4)CCO3)C2)nc2ccccc12)c1ccc(Cl)cc1Cl` (single isomer, unassigned) [Compound 67 isomer 1] here?
A: Its IC50 is less than 100 nM.

Q: For `C[C@@H](Nc1nc2c(c(N3CC(C4CN(C5CC(C)(C(=O)O)C5)CCO4)C3)n1)CN(C)C2)c1ccc(Cl)cc1Cl` (single isomer, unassigned) [Compound 68 isomer 1], which IC50 is on record?
A: Its IC50 is 100 to 500 nM.

Q: How did the IC50 turn out when `Cc1nc(N2CC(C3CN(C4CC(C)(c5nn[nH]n5)C4)CCO3)C2)nc(NC(C)c2ccc(Cl)cc2Cl)c1Cl` (single isomer, unassigned) [Compound 71 isomer 1] was run?
A: Its IC50 is 100 to 500 nM.

Q: How did the IC50 turn out when `CC(Nc1nc(N2CC(C3CN(C4CC(C)(C(=O)O)C4)CCC34CC4)C2)nc(C(F)F)c1Cl)c1ccc(Cl)cc1Cl` (single isomer, unassigned) [Compound 74 isomer 3] was run?
A: The IC50 was 100 to 500 nM.

Q: For `CC(Nc1cc(C#CC2CCCN(C3CC(C)(C(=O)O)C3)C2)ccc1Cl)c1ccc(Cl)cc1Cl` (single isomer, unassigned) [Compound 75 isomer 2], which IC50 is on record?
A: The IC50 was 100 to 500 nM.

Q: Which IC50 does the source give for `C[C@@H](Nc1nc(N2CC(C3CN(C4CC(C)(C(=O)O)C4)CCO3)C2)nc(C(F)F)c1Cl)c1ccc(Cl)cc1Cl` (single isomer, unassigned) [Compound 77 isomer 2] here?
A: The IC50 was less than 100 nM.

Q: `Cc1nc(N2CC(C3CN(C4CC(c5nn[nH]n5)C4)CCO3)C2)nc(NC(C)c2ccc(Cl)cc2Cl)c1Cl` (single isomer, unassigned) [Compound 79 isomer 1] was tested. Which IC50 did it give?
A: The IC50 was 100 to 500 nM.

Q: `Cc1nc(N2CC(C3CN(C4CC(c5nn[nH]n5)C4)CCO3)C2)nc(NC(C)c2ccc(Cl)cc2Cl)c1Cl` (single isomer, unassigned) [Compound 79 isomer 2] was tested. Which IC50 did it give?
A: The IC50 was 100 to 500 nM.

Q: How did the IC50 turn out when `Cc1nc(N2CC(C3CN(CCO)CCN3C)C2)nc(NC(C)c2ccc(Cl)cc2Cl)c1Cl` (single isomer, unassigned) [Compound 80 isomer 1] was run?
A: The IC50 was less than 100 nM.

Q: How did the IC50 turn out when `Cc1nc(N2CC(C3CN(C4CC(C)(C(=O)O)C4)CCN3C)C2)nc(NC(C)c2ccc(Cl)cc2Cl)c1Cl` (single isomer, unassigned) [Compound 81 isomer 1] was run?
A: Its IC50 is 100 to 500 nM.

Q: How did the IC50 turn out when `Cc1nc(N2CC(F)(C3CN(C4CC(C(=O)O)C4)CCO3)C2)nc(N[C@H](C)c2ccc(Cl)cc2Cl)c1Cl` (single isomer, unassigned) [Compound 84 isomer 1] was run?
A: The IC50 was 100 to 500 nM.

Q: `CC(Nc1nc(N2CC(C3C=CCN(C4CC(C)(C(=O)O)C4)C3)C2)nc(C(F)F)c1Cl)c1ccc(Cl)cc1Cl` (single isomer, unassigned) [Compound 85 isomer 1] was tested. Which IC50 did it give?
A: Its IC50 is less than 100 nM.

Q: `CC(Nc1cc(N2CC(F)(C3CN(C4CC(C)(C(=O)O)C4)CCO3)C2)ccc1Cl)c1ccc(Cl)cc1Cl` (single isomer, unassigned) [Compound 86 isomer 1] was tested. Which IC50 did it give?
A: Its IC50 is less than 100 nM.

Q: `CC(Nc1nc(N2CC(F)(C3CN(C4CC(C)(C(=O)O)C4)CCO3)C2)ncc1Cl)c1ccc(Cl)cc1Cl` (single isomer, unassigned) [Compound 89 isomer 1] was tested. Which IC50 did it give?
A: The IC50 was less than 100 nM.

Q: `Cc1nc(N2CCC(C3CN(C4CC(C)(C(=O)O)C4)CCN3C)CC2)nc(NC(C)c2ccc(Cl)cc2Cl)c1Cl` (single isomer, unassigned) [Compound 105 isomer 3] was tested. Which IC50 did it give?
A: Its IC50 is less than 100 nM.

Q: Which IC50 does the source give for `Cc1nc(N2CCC(F)(C3CN(C4CC(C)(C(=O)O)C4)CCO3)CC2)nc(NC(C)c2ccc(Cl)cc2Cl)c1Cl` (single isomer, unassigned) [Compound 106 isomer 3] here?
A: The IC50 was less than 100 nM.

Q: Which IC50 does the source give for `Cc1nc(N2CC=C(C3CN(C4CC(C)(C(=O)O)C4)CCO3)CC2)nc(NC(C)c2ccc(Cl)cc2Cl)c1Cl` (single isomer, unassigned) [Compound 107 isomer 1] here?
A: The IC50 was less than 100 nM.

Q: With `C[C@@H](Nc1cc(N2CCC(C3CN(C4CC(C)(C(=O)O)C4)CCO3)CC2)nc2ccnn12)c1ccc(Cl)cc1Cl` (single isomer, unassigned) [Compound 111] as the compound, how does the IC50 read?
A: The IC50 was less than 100 nM.

Q: How did the IC50 turn out when `C#Cc1c(C)nc(N2CC([C@H]3CCCN([C@H]4C[C@](C)(C(=O)O)C4)C3)C2)nc1N[C@H](C)c1ccc(Cl)cc1Cl` [Compound 4] was run?
A: Its IC50 is less than 100 nM.

Q: Which IC50 does the source give for `Cc1cc(N2CC([C@H]3CCCN([C@H]4C[C@](C)(C(=O)O)C4)C3)C2)nc(N[C@H](C)c2ccc(Cl)cc2Cl)n1` [Compound 12] here?
A: The IC50 was less than 100 nM.

Q: With `Cc1nc(N2CC([C@H]3CCCN([C@H]4C[C@](C)(C(=O)O)C4)C3)C2)nc(NC(C)c2cc3c(cc2Cl)CC3)c1Cl` (some centres unmarked) [Compound 13] as the compound, how does the IC50 read?
A: Its IC50 is 100 to 500 nM.

Q: Which IC50 does the source give for `C[C@@H](Nc1cc(N2CC([C@H]3CCCN([C@H]4C[C@](C)(C(=O)O)C4)C3)C2)nc2ccnn12)c1ccc(Cl)cc1Cl` [Compound 14] here?
A: The IC50 was less than 100 nM.

Q: Which IC50 does the source give for `C[C@@H](Nc1cc(N2CC([C@H]3CCCN([C@H]4C[C@](C)(C(=O)O)C4)C3)C2)ncn1)c1ccc(Cl)cc1Cl` [Compound 15] here?
A: Its IC50 is less than 100 nM.

Q: How did the IC50 turn out when `Cc1nc(N[C@H](C)c2ccc(Cl)cc2Cl)nc(N2CC([C@H]3CCCN([C@H]4C[C@](C)(C(=O)O)C4)C3)C2)n1` [Compound 17] was run?
A: The IC50 was less than 100 nM.

Q: Which IC50 does the source give for `C[C@H](c1ccc(Cl)cc1Cl)n1nc(C#N)c2ncc(N3CC(C4CN(CCO)CCO4)C3)nc21` (some centres unmarked) [Compound 19] here?
A: Its IC50 is less than 100 nM.

Q: With `C[C@@H](Nc1cc(N2CC([C@H]3CCCN([C@H]4C[C@](C)(C(=O)O)C4)C3)C2)cnn1)c1ccc(Cl)cc1Cl` [Compound 21] as the compound, how does the IC50 read?
A: The IC50 was less than 100 nM.
